Experimental data as given in ChEMBL document CHEMBL6087386, “Radioprotective effectiveness of a novel delta-tocotrienol prodrug on mouse hematopoietic system against 60Co gamma-ray irradiation through inducing granulocyte-colony stimulating factor production” (Eur J Med Chem, 2024).
Calls of active or inactive are those of the source. The calls are words filed in the database; no cut-off is given here.

What was measured:
Mus musculus [1] = test: Radioprotective activity in C57BL/6J mouse assessed as increase in platelets count at 100 mg/kg, sc preincubated with compound for 24 hrs followed by total body irradiation with 6.5 Gy and measured after 30 days; assay type: functional, organism-based; conditions: time 31.0 day
Mus musculus [2] = test: Induction of G-CSF production in C57BL/6J mouse model at 100 to 200 mg/kg, sc measured for 24 hrs by ELISA analysis; assay type: functional, organism-based; conditions: dose 100-200 mg/kg
[3] = MRT (0 to infinity) in ICR mouse at 100 mg/kg, iv measured upto 24 hrs by LC-MS/MS analysis; assay type: ADME, organism-based; conditions: ICR, in vivo
[4] = Cmax in ICR mouse at 100 mg/kg, iv measured upto 24 hrs by LC-MS/MS analysis; assay type: ADME, organism-based; conditions: in vivo
Mus musculus [5] = test: Radioprotective activity in C57BL/6J mouse assessed as increase in RBC count at 100 mg/kg, sc preincubated with compound for 24 hrs followed by total body irradiation with 6.5 Gy and measured after 30 days; assay type: functional, organism-based; conditions: time 31.0 day
Mus musculus [6] = test: Radioprotective activity in C57BL/6J mouse assessed as increase in multipotent progenitor frequency in LSK compartment at 100 mg/kg, sc preincubated with compound for 24 hrs followed by total body irradiation with 6.5 Gy and measured after 30 days; assay type: functional, organism-based; conditions: time 31.0 day
Mus musculus [7] = test: Radioprotective activity in C57BL/6J mouse assessed as survival rate at 100 mg/kg, sc preincubated with compound for 24 hrs followed by total body irradiation with 8.5 Gy and measured after 20 days by Kaplan-meier plot analysis; assay type: functional; conditions: light or radiation study, 504 h, time 21 day
Mus musculus [8] = test: Radioprotective activity in C57BL/6J mouse assessed as increase in platelet count at 100 mg/kg, sc preincubated with compound for 24 hrs followed by total body irradiation with 6.5 Gy and measured on day 10; assay type: functional, organism-based; conditions: time 11.0 day
[9] = Tmax in ICR mouse at 100 mg/kg, iv measured upto 24 hrs by LC-MS/MS analysis; assay type: ADME, organism-based; conditions: in vivo
Mus musculus [10] = test: Radioprotective activity in C57BL/6J mouse assessed as effect on LT-HSC number at 100 mg/kg, sc preincubated with compound for 24 hrs followed by total body irradiation with 6.5 Gy and measured after 30 days; assay type: functional, organism-based; conditions: time 31.0 day
Mus musculus [11] = test: Radioprotective activity in C57BL/6J mouse assessed as increase in neutrophils at 100 mg/kg, sc preincubated with compound for 24 hrs followed by total body irradiation with 6.5 Gy and measured on day 7; assay type: functional, organism-based; conditions: time 8.0 day
Mus musculus [12] = test: Radioprotective activity in C57BL/6J mouse assessed as increase in long term hematopoietic stem cell frequency in LSK compartment at 100 mg/kg, sc preincubated with compound for 24 hrs followed by total body irradiation with 6.5 Gy and measured after 30 days; assay type: functional, organism-based; conditions: time 31.0 day
[13] = Cmax in ICR mouse at 100 mg/kg, sc measured upto 24 hrs by LC-MS/MS analysis; assay type: ADME, organism-based; conditions: in vivo
[14] = Half life in ICR mouse at 100 mg/kg, iv measured upto 24 hrs by LC-MS/MS analysis; assay type: ADME, organism-based; conditions: in vivo
Mus musculus [15] = test: Induction of G-CSF production in C57BL/6J mouse model at 100 mg/kg, sc measured for 24 hrs by ELISA analysis; assay type: functional, organism-based
[16] = MRT (0 to t) in ICR mouse at 100 mg/kg, iv measured upto 24 hrs by LC-MS/MS analysis; assay type: ADME, organism-based; conditions: in vivo
Mus musculus [17] = test: Radioprotective activity in C57BL/6J mouse assessed as fold increase in total number of splenic nucleated cells at 100 mg/kg, sc preincubated with compound for 24 hrs followed by total body irradiation with 6.5 Gy and measured after 10 days; assay type: functional; conditions: time 11 day
Mus musculus [18] = test: Radioprotective activity in C57BL/6J mouse assessed as increase in spleen coefficient at 100 mg/kg, sc preincubated with compound for 24 hrs followed by total body irradiation with 6.5 Gy and measured after 10 days; assay type: functional, organism-based; conditions: time 11.0 day
Mus musculus [19] = test: Induction of G-CSF production in sc dosed C57BL/6J mouse model measured for 24 hrs by ELISA analysis; assay type: functional, organism-based; conditions: dose 12.5-200 mg/kg
Mus musculus [20] = test: Radioprotective activity in C57BL/6J mouse assessed as increase in percentage of LSK cells at 100 mg/kg, sc preincubated with compound for 24 hrs followed by total body irradiation with 6.5 Gy and measured after 30 days; assay type: functional, organism-based; conditions: time 31.0 day
[21] = Tmax in ICR mouse at 100 mg/kg, sc measured upto 24 hrs by LC-MS/MS analysis; assay type: ADME, organism-based; conditions: in vivo
Mus musculus [22] = test: Radioprotective activity in C57BL/6J mouse assessed as increase in percentage of LK cells at 100 mg/kg, sc preincubated with compound for 24 hrs followed by total body irradiation with 6.5 Gy and measured after 30 days; assay type: functional, organism-based; conditions: time 31.0 day
[23] = Bioavailability in ICR mouse at 100 mg/kg, sc measured upto 24 hrs by LC-MS/MS analysis; assay type: ADME, organism-based; conditions: in vivo
Mus musculus [24] = test: Radioprotective activity in C57BL/6J mouse assessed as increase in WBC count at 100 mg/kg, sc preincubated with compound for 24 hrs followed by total body irradiation with 6.5 Gy and measured after 30 days; assay type: functional, organism-based; conditions: time 31.0 day
[25] = Volume of distribution at steady state in ICR mouse at 100 mg/kg, iv measured upto 24 hrs by LC-MS/MS analysis; assay type: ADME, organism-based; conditions: ICR, in vivo, read-out: Vdss
Mus musculus [26] = test: Radioprotective activity in C57BL/6J mouse assessed as survival rate at 100 mg/kg, sc preincubated with compound for 24 hrs followed by total body irradiation with 9.5 Gy and measured after 30 days by Kaplan-meier plot analysis; assay type: functional; conditions: light or radiation study, 744 h, time 31 day
[27] = MRT (0 to t) in ICR mouse at 100 mg/kg, sc measured upto 24 hrs by LC-MS/MS analysis; assay type: ADME, organism-based; conditions: in vivo
[28] = Clearance in ICR mouse at 100 mg/kg, iv measured upto 24 hrs by LC-MS/MS analysis; assay type: ADME, organism-based; conditions: in vivo
Mus musculus [29] = test: Induction of G-CSF production in C57BL/6J mouse model at 50 mg/kg, sc measured for 24 hrs by ELISA analysis; assay type: functional, organism-based
Mus musculus [30] = test: Radioprotective activity in C57BL/6J mouse assessed as splenomegaly at 100 mg/kg, sc preincubated with compound for 24 hrs followed by total body irradiation with 6.5 Gy and measured after 10 days; assay type: functional, organism-based; conditions: time 11.0 day
Mus musculus [31] = test: Radioprotective activity in C57BL/6J mouse assessed as increase in MPP number at 100 mg/kg, sc preincubated with compound for 24 hrs followed by total body irradiation with 6.5 Gy and measured after 30 days; assay type: functional, organism-based; conditions: time 31.0 day
Mus musculus [32] = test: Radioprotective activity in C57BL/6J mouse assessed as increase in ST-HSC number at 100 mg/kg, sc preincubated with compound for 24 hrs followed by total body irradiation with 6.5 Gy and measured after 30 days; assay type: functional, organism-based; conditions: time 31.0 day
Mus musculus [33] = test: Radioprotective activity in C57BL/6J mouse assessed as increase in RBC count at 100 mg/kg, sc preincubated with compound for 24 hrs followed by total body irradiation with 6.5 Gy and measured on day 14; assay type: functional, organism-based; conditions: time 15.0 day
Mus musculus [34] = test: Radioprotective activity in C57BL/6J mouse assessed as effect on splenic LT-HSCs number at 100 mg/kg, sc preincubated with compound for 24 hrs followed by total body irradiation with 6.5 Gy and measured after 10 days; assay type: functional, organism-based; conditions: time 11.0 day
Mus musculus [35] = test: Induction of G-CSF production in C57BL/6J mouse model at 12.5 to 25 mg/kg, sc measured for 24 hrs by ELISA analysis; assay type: functional, organism-based; conditions: dose 12.5-25 mg/kg
Mus musculus [36] = test: Radioprotective activity in C57BL/6J mouse assessed as increase in neutrophils at 100 mg/kg, sc preincubated with compound for 24 hrs followed by total body irradiation with 6.5 Gy and measured after 30 days; assay type: functional, organism-based; conditions: time 31.0 day

For CC(C)=CCC/C(C)=C/CC/C(C)=C/CC[C@]1(C)CCc2cc(O)cc(C)c2O1 [DELTA-TOCOTRIENOL], the Activity (Mus musculus [1]) was “Active”, the Activity (Mus musculus [2]) was “Active” and the MRT inf [3] was 1.63 h. The Cmax [4] was 1.11 ng/mL, the Activity (Mus musculus [5]) was “Active” and the Activity (Mus musculus [6]) was “Active”. For the same molecule, the survival at 100 mg/kg (Mus musculus [7]) was 70%, the Activity (Mus musculus [8]) was “Active” and the Tmax [9] was 4.8 min. The Activity (Mus musculus [10]) was “inactive”, the Activity (Mus musculus [11]) was “Active” and the Activity (Mus musculus [12]) was “Active”. The Cmax [13] was 4.95 ng/mL, the half-life [14] was 4.43 h and the Activity (Mus musculus [15]) was “Active”. The MRT last at 24 h [16] was 1.46 h, the “fold change (FC)” value (Mus musculus [17]) was about 2.5 and the Activity (Mus musculus [18]) was “Active”. The Activity (Mus musculus [19]) was “Dose-dependent-effect”, the Activity (Mus musculus [20]) was “Active” and the Tmax [21] was 12 h. For the same molecule, the Activity (Mus musculus [22]) was “Active”, the F [23] was 2.02% and the Activity (Mus musculus [24]) was “Active”. For the same molecule, the Vd [25] was 0.437 L/kg, the survival at 100 mg/kg (Mus musculus [26]) was 60% and the MRT last at 24 h [27] was 13.9 h. The CL [28] was 4.4143 mL/min/kg, the Activity (Mus musculus [29]) was “Active” and the Activity (Mus musculus [30]) was “Active”. For the same molecule, the Activity (Mus musculus [31]) was “Active”, the Activity (Mus musculus [32]) was “Active” and the Activity (Mus musculus [33]) was “Active”. The Activity (Mus musculus [34]) was “Active”, the Activity (Mus musculus [35]) was “inactive” and the Activity (Mus musculus [36]) was “Active”.
